In assay [1] the target is T1, human jejunal NK2 receptor (Homo sapiens, UniProt P21452).
T1 construct: expressed in transfected cells; host or cells: HSKR-1 cells (mouse 3T3 fibroblasts)
T1 sequence (P21452 1-398): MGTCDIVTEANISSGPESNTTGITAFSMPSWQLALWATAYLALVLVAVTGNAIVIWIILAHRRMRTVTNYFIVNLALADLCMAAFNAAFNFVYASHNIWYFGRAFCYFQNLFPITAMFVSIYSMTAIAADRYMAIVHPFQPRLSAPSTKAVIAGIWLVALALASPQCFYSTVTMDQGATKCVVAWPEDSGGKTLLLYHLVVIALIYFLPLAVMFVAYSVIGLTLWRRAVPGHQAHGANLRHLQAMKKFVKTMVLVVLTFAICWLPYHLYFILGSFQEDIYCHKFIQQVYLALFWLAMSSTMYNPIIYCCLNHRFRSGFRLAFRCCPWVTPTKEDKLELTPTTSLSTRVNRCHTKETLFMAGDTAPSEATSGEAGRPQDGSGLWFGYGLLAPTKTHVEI
Description: Antagonism of iodinated tachykinin binding to NK2 receptors (Example A). As to the method: (§1) One skilled in the art can determine the NK1 receptor and NK2 receptor affinity in vitro as follows. The NK1 receptor affinity of tachykinin antagonists is evaluated in guinea pig lungs (Keystone Biologicals, Cleveland, OH) and affinity for the NK2 receptor is evaluated in HSKR-1 cells (which are mouse 3T3 fibroblasts expressing the human jejunal NK2 receptor). Tissues or cells are homogenized with a Polytron in 15 volumes of 50 mM Tris-HC1 buffer (pH 7.4, 4°C) and centrifuged. The pellet is resuspended in Tris-HCl buffer and is centrifuged; the pellet is washed twice by resuspension. The final pellet is resuspended at a concentration of 40 mg/ml for tissues and 20 mg/ml for cells in incubation buffer and remains at room temperature for at least 15 min prior to use. Receptor binding is initiated by addition of 250 ul membrane preparation in duplicate to 0.1 nM of the following radioligands: ^125I-Bolton Hunter Lys-3 labeled substance P and ^125iodohistidyl-1-neurokinin A; in a final volume of 500 ul of buffer containing 50 mM Tris-HCl (pH 7.4 at room temperature), 0.1% bovine serum albumin, 2 mM mangenese chloride, 40 ug/ml bacitracin, 4 µg/ml leupeptin and chymostatin, 10 µM thiorphan and various doses of the putative tachykinin antagonists. Incubations are performed at room temperature for 90 min (NK1 receptor assays) or 2 hr (NK2 receptor assay); binding is terminated by addition of 50 mM Tris-HCl buffer (pH 7.4, 4°C) and filtration under vacuum through GF/B filters presoaked with 0.1% polyethyleneimine (NK1 receptor assays) or 0.5% bovine serum albumin (NK2 receptor assay). Filter bound radioactivity is quantitated in a gamma counter. Nonspecific binding is defined as binding in the presence of 1 µM substance P or neurokinin A. Specific binding is calculated by subtracting nonspecific binding from total binding. Competition of iodinated SP or NKA binding by test compounds or standards is expressed as a percentage of this maximum binding. IC50 values (concentration required to inhibit 50% of receptor binding) are generated for each of the test compounds by nonlinear regression using an iterative curve fitting program (GraphPAD Inplot, San Diego, CA).
(§2) Tackykinin receptor binding (IC50 values) for representative compounds of the present invention is found in Table 1. The values in Table 1 were determined by the method of present Example A and represent the mean of several experiments, except where noted. […]

The next assay addresses T2, NK1 receptor (Cavia porcellus, UniProt P30547).
T2 construct: evaluated in guinea pig lungs (Keystone Biologicals, Cleveland, OH); tissue Keystone Biologicals, Cleveland, OH; host or cells: guinea pig lung membranes
Nature of the assay: Antagonism of iodinated tachykinin binding to NK1 receptors (Example A). Also noted: species or system guinea pig. As to the method: as §1, §2

[2] abbreviates: read-out: Tachykinin Receptor Binding NK2 IC50, HSKR-1 cells (mouse 3T3 fibroblasts expressing the human jejunal NK2 receptor), 0.1 nM 125iodohistidyl-1-neurokinin A, 2 hr room temperature, mean of several experiments.
The mark [3] stands for this setting: read-out: Tachykinin Receptor Binding NK1 IC50, guinea pig lungs membranes, 0.1 nM 125I-Bolton Hunter Lys-3 labeled substance P, 90 min room temperature, mean of several experiments.

Counter-ions that a name gives are not always drawn. Like-named read-outs stand apart in the source and are kept apart here.

T2 sequence (P30547 whole entry): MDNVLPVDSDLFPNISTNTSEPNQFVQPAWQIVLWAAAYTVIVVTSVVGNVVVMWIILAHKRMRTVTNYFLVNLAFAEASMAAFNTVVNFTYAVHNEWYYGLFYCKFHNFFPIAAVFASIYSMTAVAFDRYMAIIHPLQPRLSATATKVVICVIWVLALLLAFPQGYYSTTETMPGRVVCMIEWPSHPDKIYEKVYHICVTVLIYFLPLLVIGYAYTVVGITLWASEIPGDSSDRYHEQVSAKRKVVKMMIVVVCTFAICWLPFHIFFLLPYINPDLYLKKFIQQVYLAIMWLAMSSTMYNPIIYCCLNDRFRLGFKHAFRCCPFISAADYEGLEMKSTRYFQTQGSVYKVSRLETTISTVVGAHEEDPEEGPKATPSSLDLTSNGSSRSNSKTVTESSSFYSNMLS

Usually IC50 stands for the point on the concentration scale where inhibition reaches its midpoint. Consider `COc1cc(C(=O)N2CC[C@](CCN3CCC(C(=O)N4CCN(CCC(=O)O)CC4)(c4ccccc4)CC3)(c3ccc(Cl)c(Cl)c3)C2)cc(OC)c1OC` [Example 28.2, (R)-1-(3,4,5-trimethoxybenzoyl)-3-(2-(4-phenyl-4-((4-carboxyethylpiperazin-1-yl)carboxamido)piperidine)ethyl)-3-(3,4-dichlorophenyl)pyrrolidine hydrochloric acid salt], for which the values for the IC50 (in assay [1]; at NK1 receptor) were 3.73 nM and 19.6 nM, respectively.
`CCOC(=O)CCCN1CCN(C(=O)C2(c3ccccc3)CCN(CC[C@]3(c4ccc(Cl)c(Cl)c4)CCN(C(=O)c4cc(OC)c(OC)c(OC)c4)C3)CC2)CC1` [Example 29.2, (R)-1-(3,4,5-trimethoxybenzoyl)-3-(2-(4-phenyl-4-((4-carboethoxypropylpiperazin-1-yl)carboxamido)piperidine)ethyl)-3-(3,4-dichlorophenyl)pyrrolidine fumaric acid salt]: the results for the IC50 (in assay [1]; on NK1 receptor) were 3.21 nM and 11.9 nM, respectively.
Consider `COc1cc(C(=O)N2CC[C@](CCN3CCC(C(=O)N4CCN(CCCC(=O)O)CC4)(c4ccccc4)CC3)(c3ccc(Cl)c(Cl)c3)C2)cc(OC)c1OC` [Example 30.2, (R)-1-(3,4,5-trimethoxybenzoyl)-3-(2-(4-phenyl-4-((4-carboxypropylpiperazin-1-yl)carboxamido)piperidine)ethyl)-3-(3,4-dichlorophenyl)pyrrolidine hydrochloric acid salt], for which the IC50 in assay [1] came to 3.6 nM; at NK1 receptor it was 3.4 nM.
`CCOC(=O)OCOC(=O)CN1CCN(C(=O)C2(c3ccccc3)CCN(CC[C@]3(c4ccc(Cl)c(Cl)c4)CCN(C(=O)c4cc(OC)c(OC)c(OC)c4)C3)CC2)CC1` [Example 31.2, (R)-1-(3,4,5-trimethoxybenzoyl)-3-(2-(4-phenyl-4-((4-carbo(ethoxycarbonyloxymethoxy)methylpiperazin-1-yl)carboxamido)piperidine)ethyl)-3-(3,4-dichlorophenyl)pyrrolidine fumaric acid salt]: the half-inhibitory concentration (IC50) came to 9.1 nM in assay [1] (setting [2]) and 11.7 nM on NK1 receptor (setting [3]).
`COc1cc(C(=O)N2CC[C@](CCN3CCC(C(=O)N4CCN(CC(=O)OCOC(=O)C(C)(C)C)CC4)(c4ccccc4)CC3)(c3ccc(Cl)c(Cl)c3)C2)cc(OC)c1OC` [Example 32.2, (R)-1-(3,4,5-trimethoxybenzoyl)-3-(2-(4-phenyl-4-((4-carbo(t-butylcarbonyloxymethoxy)methylpiperazin-1-yl)carboxamido)piperidine)ethyl)-3-(3,4-dichlorophenyl)pyrrolidine fumaric acid salt]: the results for the IC50 (in assay [1] (setting [2]); at NK1 receptor (setting [3])) were 13.9 nM and 21.2 nM, respectively.
On the same counts, the results for `CCN(CC)C(=O)COC(=O)CN1CCN(C(=O)C2(c3ccccc3)CCN(CC[C@]3(c4ccc(Cl)c(Cl)c4)CCN(C(=O)c4cc(OC)c(OC)c(OC)c4)C3)CC2)CC1` [Example 33.2, (R)-1-(3,4,5-trimethoxybenzoyl)-3-(2-(4-phenyl-4-((4-carbo(N,N-diethylcarboxamidomethoxy)methylpiperazin-1-yl)carboxamido)piperidine)ethyl)-3-(3,4-dichlorophenyl)pyrrolidine fumaric acid salt] are 2.43 nM and 3.95 nM.
On to `CCCC(=O)OCOC(=O)CN1CCN(C(=O)C2(c3ccccc3)CCN(CC[C@]3(c4ccc(Cl)c(Cl)c4)CCN(C(=O)c4cc(OC)c(OC)c(OC)c4)C3)CC2)CC1` [Example 35.2, (R)-1-(3,4,5-trimethoxybenzoyl)-3-(2-(4-phenyl-4-((4-carbo(propylcarbonyloxymethoxy)methylpiperazin-1 yl)carboxamido)piperidine)ethyl)-3-(3,4-dichlorophenyl)pyrrolidine fumaric acid salt], for which the IC50 in assay [1] (setting [2]) was 11.7 nM; at NK1 receptor (setting [3]) it was 14.7 nM.
With `COc1cc(C(=O)N2CC[C@](CCN3CCC(C(=O)N4CCN(CC(=O)OCC(=O)N(CCO)CCO)CC4)(c4ccccc4)CC3)(c3ccc(Cl)c(Cl)c3)C2)cc(OC)c1OC` [Example 36.1, (R)-1-(3,4,5-Trimethoxybenzoyl)-3-(2-(4-phenyl-4-((4-carbo(N,N-di-(2-hydroxyethyl)carboxamidomethoxy)methylpiperazin-1-yl)carboxamido)piperidin-1-yl)ethyl)-3-(3,4-dichlorophenyl)pyrrolidine], the IC50 in assay [1] (setting [2]) came to 2.32 nM; at NK1 receptor (setting [3]), 2.68 nM.
Take `COc1cc(C(=O)N2CC[C@](CCN3CCC(C(=O)N4CCN(CC(=O)OCC(=O)N(C)CCN(C)C)CC4)(c4ccccc4)CC3)(c3ccc(Cl)c(Cl)c3)C2)cc(OC)c1OC` [Example 37.2, (R)-1-(3,4,5-Trimethoxybenzoyl)-3-(2-(4-phenyl-4-((4-carbo(N-methyl-N-(2-dimethylaminoethyl))carboxamidomethoxy)methylpiperazin-1-yl)carboxamido)piperidin-1-yl)ethyl)-3-(3,4-dichlorophenyl)pyrrolidine fumaric acid salt]: the results for the IC50 (in assay [1] (setting [2]); at NK1 receptor (setting [3])) were 0.9 nM and 2.09 nM, respectively.
For `COc1cc(C(=O)N2CC[C@](CCN3CCC(C(=O)N4CCN(CC(=O)OCc5oc(=O)oc5C)CC4)(c4ccccc4)CC3)(c3ccc(Cl)c(Cl)c3)C2)cc(OC)c1OC` [Example 38.2, (R)-1-(3,4,5-Trimethoxybenzoyl)-3-(2-(4-phenyl-4-((4-carbo(5-methyl-2-oxo-1,3-dioxol-4-yimethoxy)methylpiperazin-1-yl)carboxamido)piperidin-1-yl)ethyl)-3-(3,4-dichlorophenyl)pyrrolidine fumaric acid salt], the IC50 in assay [1] (setting [2]) was 4.3 nM; on NK1 receptor (setting [3]), 7.82 nM.

(Values after patent publication EP0946545B1, “NOVEL CARBOXY SUBSTITUTED CYCLIC CARBOXAMIDE DERIVATIVES” (Aventis Pharmaceuticals Inc., priority 1996, dated 1998).)
